In US12036201B2, “Combination of a ubiquitin-conjugating enzyme complex inhibitor and antihypertensive and/or hypoglycemic drugs in diabetic kidney disease” (UNIVERSITÀ DEGLI STUDI DI BARI ALDO MORO, priority 2018, dated 2024):
Entries after “also recorded” stand apart in the source; their conditions may differ.

Legend:
[1] = system: Lysine 63 ubiquitinated proteins in HK2 cells; test: Immunofluorescence/confocal microscopy of lysine 63 ubiquitinated proteins in HK2 cells under high glucose; type: cell-based, human; settings: high glucose 30 mM, NSC697923 1 μM
Experimental: (§1) HK2 cells, a line of Renal Proximal Tubule Epithelial Cells (PTEC) obtained from a human control kidney, were purchased from the American Type Culture Collection (ATCC, Rockville, MD). Cells were cultured in DMEM growth medium low glucose (5.5 mM) with the addition of 10% fetal bovine serum (FBS), 1% Penicillin and Streptomycin and 1% L-Glutamine (Sigma-Aldrich, Munich, Germany). Prior to each passage, cells reaching confluence were rinsed with phosphate-buffered saline (PBS), trypsinized with Trypsin 0.05% and Ethylenediaminetetraacetic acid (EDTA) 0.02% in PBS and seeded in complete growth medium with or without the addition of D-Glucose 24.5 mM (final concentration in hyperglycemia HG=30 mM) or L-Glucose 24.5 mM as osmolarity control, for each predetermined time point. Cells were then incubated at 37° C. in 5% CO2.
(§2) The cellular distribution of the proteins showing lysine63-linked ubiquitylation and the expression of the mesenchymal marker α-sma was evaluated in HK2 cells through indirect immunofluorescence and confocal microscopy analysis following incubation with specific antibodies. For each condition, 150.000 cells were plated on sterile glass slides and then incubated with D- or L-Glucose 30 mM for the indicated time point. In some predetermined conditions, the specific inhibitor of Lysine63-linked ubiquitylation, NSC697923, was pre-incubated at a 1 μM final concentration, 1 h prior to the addition of glucose and/or the ACE-inhibitor Ramipril at a final concentration of 10 μM and/or the SGLT2 inhibitor Empaglifozin at a 500 nM final concentration. Following stimulation, HK2 were fixed 15 min in paraformaldehyde 4%, treated 5 min with Triton-X 100 0.1% in PBS, and incubated 1 h in blocking buffer (goat serum 4%+BSA 2%). Cells were then incubated 1 h with the specific antibodies against α-sma and lysine63 ubiquitin diluted in blocking buffer. The antigen-antibody complex was then identified using a secondary fluorescent antibody (specifically Alexa Fluor 555 goat anti-rabbit and Alexa Fluor 488 goat anti-mouse). Prior to the incubation with the secondary antibody, cells were rinsed three times in PBS. Cells nuclei were then stained using TO-PRO-3 diluted in PBS and slides were mounted. The negative control was obtained incubating cells in blocking without the addition of the primary antibody. The fluorescence signal was then acquired using the Leica TCS SP2 confocal microscope and images were saved at a 63× zoom using the microscope software. Signal was finally quantified measuring the area % of fluorescent signal compared to the background.

[2] = system: α-sma expression in HK2 cells; test: Immunofluorescence/confocal microscopy of α-sma in HK2 cells under high glucose; type: cell-based, human; settings: NSC697923 1 μM
Experimental: as §1, §2

[3] = system: α-sma expression in HK2 cells; test: Western blotting of α-sma in HK2 cells under high glucose; type: cell-based, human; settings: Example 3, FIG. 3, high glucose 30 mM, NSC697923 1 μM, Ramipril 10 μM
Experimental: as §1
Cells were plated in six-well plates and incubated to reach confluence. Cells were then exposed to either D- or L-Glucose at a concentration of 30 mM for the indicated time point. […]
By western blotting on cultured immortalized renal tubular cells (HK2) we evaluated the protein expression levels of α-sma, a marker of epithelial-to-mesenchymal transition.

[4] = Clinical data of DBA/2J mice (controls and STZ diabetic): body weight, kidney weight, blood glucose, urinary volume; type: in vivo, mice (DBA/2J); set-up: Blood glucose at sacrifice: unit: mg/dl; settings: for Kidney Weight: in g (unit assumed)
Experimental: The animal model employed is the murine model DBA/2J. 8-weeks-old mice received daily intraperitoneal injections for five consecutive days of either sodium citrate (females, control group) or streptozotocin (STZ, 45 mg/kg, pH4.5, dissolved in sodium citrate) for the study group (males). Only those animals showing a blood glucose level above 250 mg/dl were included in this study. Five weeks following the last STZ injection, animals were treated with NSC697923 dissolved in PBS (3 mg/kg, 3 times a week for 6 weeks) and/or […] (2 mg/kg, 3 times a week for 6 weeks) dissolved in DMSO 2% either alone or in combination [NSC697923 (3 mg/kg)+[…] (2 mg/kg) 3 times a week for 6 weeks]. Serum and 24 h urine samples were collected at the end of the treatment. Kidney samples were collected at sacrifice and immediately fixed in formalin and embedded in paraffin.

diabetic mice (STZ) [5] = test: Urinary albumin analysis (Mouse Albumin ELISA Kit) in 24 h urine; type: in vivo, mice (DBA/2J); settings: for ug urine albumin 24 h: 24 h urine
Experimental: (§3) The animal model employed is the murine model DBA/2J. 8-weeks-old mice received daily intraperitoneal injections for five consecutive days of either sodium citrate (females, control group) or streptozotocin (STZ, 45 mg/kg, pH4.5, dissolved in sodium citrate) for the study group (males). Only those animals showing a blood glucose level above 250 mg/dl were included in this study. Five weeks following the last STZ injection, animals were treated with NSC697923 dissolved in PBS (3 mg/kg, 3 times a week for 6 weeks) and/or RAMIPRIL (2 mg/kg, 3 times a week for 6 weeks) dissolved in DMSO 2% either alone or in combination [NSC697923 (3 mg/kg)+RAMIPRIL (2 mg/kg) 3 times a week for 6 weeks]. Serum and 24 h urine samples were collected at the end of the treatment. Kidney samples were collected at sacrifice and immediately fixed in formalin and embedded in paraffin.
Urinary albumin concentration was measured in the urine of these animals using the commercially available Mouse Albumin ELISA Kit (Abcam). The urinary albumin values were normalized to the total urinary protein content compared to the total volume of urines produced during the 24 h before sacrifice.

[6] = system: Lysine 63 ubiquitinated proteins (Lys63-Ub); test: Immunohistochemistry of lysine 63 ubiquitinated proteins on renal tissue; type: in vivo, mice (DBA/2J); settings: diabetic mice (STZ)
Experimental: Tissue samples were obtained from kidney of DBA/2J mice. Following sacrifice, tissues were fixed in 4% formaldehyde. In order to evaluate the accumulation of proteins undergoing Lysisine63-linked ubiquitylation through immunohistochemistry, dewaxed and unmasked sections were incubated 10 min in H2O2 and 5 min in Triton 0.25% at ambient temperature. Sections were then blocked 10 min with Protein block (Dako, Glostrup, Denmark) and then incubated 1 h with the specific antibody against and lysine63-linked ubiquitylation. […] Sections were stained with hematoxylin and slides were mounted with glycerol. The negative control sample lacks the primary antibody incubation step. The signal is then quantified using the Positive Pixel Count v9_v10.0.0.1805 algorithm (Aperio Technologies) that measures the number of […].
The animal model employed is the murine model DBA/2J. […]
(§4) Lysine 63 ubiquitinated proteins accumulation has been evaluated by immunohistochemistry on renal tissues from the mice model of diabetic nephropathy (DBA/2J mice+streptozotocin-STZ); the degree of fibrosis in these samples has been evaluated by Sirius Red Fast Green staining.

[7] = system: immortalized human renal tubular cells HK2; settings: in vitro cellular model of HK2 cells; Pontrelli et al. FASEB J 2017; cited from earlier work
diabetic mice (STZ) [8] = test: Sirius Red/Fast Green staining of tubular-interstitial fibrosis in kidney; type: in vivo, mice (DBA/2J)
Experimental: Tissue samples were obtained from kidneys of DBA/2J mice following sacrifice. Tissue was fixed in 4% formaldehyde. Following dewaxing and hydration, sections were incubated with Bouin's solution overnight at ambient temperature. Sections were then rinsed using running tap water to remove all the fixative residues and incubated 1 h at ambient temperature with the Sirius Red/Fast Green dye combination 1:1.
as §3, with “Serum and 24 h urine samples were collected at the end of the treatment. Kidney samples were collected at sacrifice and immediately fixed in formalin and embedded in paraffin.” left out
as §4

[9] = Example 4, FIG. 4b, Ramipril 10 μM
[10] = Table 2, diabetic (STZ) DBA/2J mice, NSC697923 3 mg/kg and/or Ramipril 2 mg/kg 3 times a week for 6 weeks
[11] = Table 2, non-diabetic DBA/2J mice, NSC697923 3 mg/kg and/or Ramipril 2 mg/kg 3 times a week for 6 weeks
[12] = Example 8, FIG. 8b, Empaglifozin 500 nM
[13] = Example 8, FIG. 8a, high glucose 30 mM, Empaglifozin 500 nM
[14] = Example 6, FIG. 6, compared to untreated diabetic mice or mice treated with ACE inhibitors alone
[15] = Table 1, diabetic (STZ) DBA/2J mice, NSC697923 3 mg/kg 3 times a week for 6 weeks
[16] = Table 1, non-diabetic DBA/2J mice, NSC697923 3 mg/kg 3 times a week for 6 weeks

## CCOC(=O)[C@H](CCc1ccccc1)N[C@@H](C)C(=O)N1[C@H](C(=O)O)C[C@@H]2CCC[C@@H]21 [RAMIPRIL, Ramipril]
[1]; [9]
  accumulation of lysine 63 ubiquitinated proteins (confocal microscopy): do not reduce
[2]; Examples 4 and 5, FIGS. 4a and 5, high glucose 30 mM, Ramipril 10 μM, listed as ACE inhibitors
  α-sma expression (confocal microscopy): do not block; also recorded: do not reduce
[3]
  α-sma expression (western blotting, normalized to actin): have no effect
[4]; [10]
  Blood glucose at sacrifice: 555.71 ± 71.48
  Urinary Volume (mL/24 h): 29.64 ± 9.51 mL/24 h
  Kidney Weight: 0.37 ± 0.054
[4]; [11]
  Blood glucose at sacrifice: 112 ± 9.14
  Kidney Weight: 0.242 ± 0.027
Diabetic mice (STZ) [5]; [10]
  ug urine albumin 24 h: 388.79 ± 79.78 µg
Diabetic mice (STZ) [5]; [11]
  ug urine albumin 24 h: 128.54 ± 55.94 µg

## OC[C@H]1O[C@@H](c2ccc(Cl)c(Cc3ccc(O[C@H]4CCOC4)cc3)c2)[C@H](O)[C@@H](O)[C@@H]1O [SGLT2 receptor inhibitors, Empaglifozin]
[1]; [12]
  accumulation of lysine 63 ubiquitinated proteins (confocal microscopy): do not reduce
[2]; [13]
  α-sma expression (confocal microscopy): partially reduce

## Cc1ccc(S(=O)(=O)c2ccc([N+](=O)[O-])o2)cc1 [NSC697923, 2-(4-methylphenyl)sulfonyl-5-nitrofuran]
[6]; Example 1, FIG. 1, NSC697923 3 mg/kg 3 times a week for 6 weeks, vs untreated STZ
  accumulation of lysine 63 ubiquitinated proteins in kidney: significantly reduces
[6]; [14]
  accumulation of lysine 63 ubiquitinated proteins in kidney: significant reduction
[1]; [9]
  accumulation of lysine 63 ubiquitinated proteins (confocal microscopy): reduces both processes
[1]; [12]
  accumulation of lysine 63 ubiquitinated proteins (confocal microscopy): reduces both processes
[7]
  epithelial to mesenchymal transition: blocks
[2]; [13]
  α-sma expression (confocal microscopy): reduces both processes
[2]; Examples 4 and 5, FIGS. 4a and 5, high glucose 30 mM, Ramipril 10 μM
  α-sma expression (confocal microscopy): reduces both processes; also recorded: able to inhibit
[3]
  α-sma expression (western blotting, normalized to actin): reduced
[4]; [15]
  Blood glucose at sacrifice: 540.5 ± 33.05
  Urinary Volume (mL/24 h): 25.83 ± 12.58 mL/24 h
  Kidney Weight: 0.33 ± 0.079
[4]; [16]
  Blood glucose at sacrifice: 118.8 ± 10.44
  Urinary Volume (mL/24 h): 0.33 ± 0.17 mL/24 h
  Kidney Weight: 0.24 ± 0.018
[4]; [10]
  Blood glucose at sacrifice: 594.28 ± 7.95
  Urinary Volume (mL/24 h): 24.85 ± 7.78 mL/24 h
  Kidney Weight: 0.38 ± 0.05
Diabetic mice (STZ) [8]; Example 1, FIGS. 1 and 2, NSC697923 3 mg/kg 3 times a week for 6 weeks, vs untreated STZ, 3 mg/kg
  degree of tubular-interstitial fibrosis (Sirius Red Fast Green): significantly reduces; also recorded: capable of reducing
Diabetic mice (STZ) [8]; [14]
  degree of fibrosis (Sirius Red Fast Green): significant reduction
Diabetic mice (STZ) [5]; Example 2, first group of animals, treated diabetic mice (STZ+NSC697923) compared to untreated diabetic mice (STZ)
  effect on urinary albuminuria: has no effect; also recorded: not able to reduce
Diabetic mice (STZ) [5]; [15]
  ug urine albumin 24 h: 724.25 ± 690.89 µg
Diabetic mice (STZ) [5]; [10]
  ug urine albumin 24 h: 439.29 ± 211.2 µg
